Some results are limits rather than exact numbers.

In assay [1] the test system is Escherichia coli EC-1: VOGEL, mouse virulent. In words: MIC determination (CLSI), strain EC-1. It counts as cell-based. To be noted: strain EC-1, unit assumed. An outline of the steps: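 The mouse-virulent VOGEL isolate of E. coli, EC-1, served as test organism. Minimum inhibitory concentration was measured by CLSI dilution methodology (M7-A7; M100-S18 standards).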

The test system of assay [2] is Pseudomonas aeruginosa UI-18: Wild-type (PA-7). In words: MIC determination (CLSI), strain PA-7. The class given is cell-based. As to conditions: strain PA-7, unit assumed. The gist of the method:
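Strain tested was P. aeruginosa UI-18, a wild-type isolate labelled PA-7. Minimum inhibitory concentrations followed CLSI dilution methodology for aerobically growing bacteria (M7-A7, M100-S18).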

Setting [3] is: generated in the same manner as in Table 4.

With `CC(CCn1ccc(-c2ccc(OCCO)c(Cl)c2Cl)cc1=O)(C(=O)NO)S(C)(=O)=O` (centres unmarked) [Example 234, 4-{4-[2,3-dichloro-4-(2-hydroxyethoxy)phenyl]-2-oxopyridin-1(2H)-yl}-N-hydroxy-2-methyl-2-(methylsulfonyl)butanamide], in assay [1], the EC-1 (MIC) worked out at 64 µg/mL. Further, the PA-7 (MIC) in assay [2] was 32 µg/mL.

The compound `C[C@@](CCn1ccc(-c2cnc(-c3ccccc3)o2)cc1=O)(C(=O)NO)S(C)(=O)=O` [Example 474] gave an EC-1 (MIC) in assay [1] of 64 µg/mL. The compound further returned a PA-7 (MIC) in assay [2] of 64 µg/mL.

Regarding `CC(CCn1ccc(-c2ccc(C#N)c(F)c2)cc1=O)(C(=O)NO)S(C)(=O)=O` (centres unmarked) [Example 207, 4-[4-(4-cyano-3-fluorophenyl)-2-oxopyridin-1(2H)-yl]-N-hydroxy-2-methyl-2-(methylsulfonyl)butanamide], the EC-1 (MIC) in assay [1] was found to be 16 µg/mL. The same compound came in with a PA-7 (MIC) in assay [2] of 16 µg/mL.

In assay [1] (setting [3]), `CC(CCn1ccc(-c2ccc(OC(F)(F)F)cc2)cc1=O)(C(=O)NO)S(C)(=O)=O` (centres unmarked) [Example 145, N-hydroxy-2-methyl-2-(methylsulfonyl)-4-{2-oxo-4-[4-(trifluoromethoxy)phenyl]pyridin-1(2H)-yl}butanamide] registered an EC-1 (MIC) of 1 µg/mL. The compound also came in with a PA-7 (MIC) in assay [2] (setting [3]) of 2 µg/mL.

`Cc1cc(-c2ccn(CCC(C)(C(=O)NO)S(C)(=O)=O)c(=O)c2)ccc1F` (centres unmarked) [Example 193, 4-[4-(4-fluoro-3-methylphenyl)-2-oxopyridin-1(2H)-yl]-N-hydroxy-2-methyl-2-(methylsulfonyl)butanamide] yielded an EC-1 (MIC) in assay [1] of 2 µg/mL. The PA-7 (MIC) in assay [2] stood at 2 µg/mL.

Take `COc1ccc(-c2ccn(CC[C@](C)(C(=O)NO)S(C)(=O)=O)c(=O)c2C)c(F)c1` [Example 393, (2R)-4-[4-(2-fluoro-4-methoxyphenyl)-3-methyl-2-oxopyridin-1(2H)-yl]-N-hydroxy-2-methyl-2-(methylsulfonyl)butanamide]: the EC-1 (MIC) in assay [1] amounted to 0.5 µg/mL. Further, the PA-7 (MIC) in assay [2] worked out at 1 µg/mL.

Turning to `CC(CCn1ccc(-c2cncc3ccccc23)cc1=O)(C(=O)NO)S(C)(=O)=O` (centres unmarked) [Example 109, N-hydroxy-4-(4-isoquinolin-4-yl-2-oxopyridin-1(2H)-yl)-2-methyl-2-(methylsulfonyl)butanamide], the EC-1 (MIC) in assay [1] (setting [3]) is > 64 µg/mL. The PA-7 (MIC) in assay [2] (setting [3]) was > 64 µg/mL.

Regarding `C[C@@](CCn1ccc(-c2ccc(-c3ncc[nH]3)cc2)cc1=O)(C(=O)NO)S(C)(=O)=O` [Example 367, (2R)-N-hydroxy-4-{4-[4-(1H-imidazol-2-yl)phenyl]-2-oxopyridin-1(2H)-yl}-2-methyl-2-(methylsulfonyl)butanamide], the EC-1 (MIC) in assay [1] came to 8 µg/mL. For the same compound, the PA-7 (MIC) in assay [2] was > 64 µg/mL.

`CC(CCn1ccc(-c2ccc(Cl)cc2)cc1=O)(C(=O)NO)S(C)(=O)=O` (centres unmarked) [Example 141, 4-[4-(4-chlorophenyl)-2-oxopyridin-1(2H)-yl]-N-hydroxy-2-methyl-2-(methylsulfonyl)butanamide]: the EC-1 (MIC) in assay [1] (setting [3]) is 1 µg/mL. In assay [2] (setting [3]), this compound returned a PA-7 (MIC) of 1 µg/mL.

With `Cc1c(-c2ccn(CCC(C)(C(=O)NO)S(C)(=O)=O)c(=O)c2)cnn1-c1ccccc1` (centres unmarked) [Example 203, N-hydroxy-2-methyl-4-[4-(5-methyl-1-phenyl-1H-pyrazol-4-yl)-2-oxopyridin-1(2H)-yl]-2-(methylsulfonyl)butanamide], the EC-1 (MIC) in assay [1] stood at 64 µg/mL. In addition, in assay [2], the PA-7 (MIC) was > 64 µg/mL.

Regarding `CC(CCn1ccc(-c2ccccc2O)cc1=O)(C(=O)NO)S(C)(=O)=O` (centres unmarked) [Example 213, N-hydroxy-4-[4-(2-hydroxyphenyl)-2-oxopyridin-1(2H)-yl]-2-methyl-2-(methylsulfonyl)butanamide], the EC-1 (MIC) in assay [1] is > 64 µg/mL. In assay [2], the PA-7 (MIC) is > 64 µg/mL.

For the compound `Cc1cc(-c2cc(CO)no2)ccc1-c1ccn(CCC(C)(C(=O)NO)S(C)(=O)=O)c(=O)c1` (centres unmarked) [Example 286], the EC-1 (MIC) in assay [1] was found to be 16 µg/mL. The PA-7 (MIC) in assay [2] amounted to 16 µg/mL.

Take `CC(C)Oc1ccc(-c2ccn(CC[C@](C)(C(=O)NO)S(C)(=O)=O)c(=O)c2)cc1` [Example 390, (2R)-N-hydroxy-4-[4-(4-isopropoxyphenyl)-2-oxopyridin-1(2H)-yl]-2-methyl-2-(methylsulfonyl)butanamide]: the EC-1 (MIC) in assay [1] amounted to 0.25 µg/mL. Besides, the PA-7 (MIC) in assay [2] is 0.5 µg/mL.

Regarding `CC(CCn1ccc(-c2ccc3[nH]ccc3c2)cc1=O)(C(=O)NO)S(C)(=O)=O` (centres unmarked) [Example 79], the EC-1 (MIC) in assay [1] (setting [3]) is 4 µg/mL. The compound further showed a PA-7 (MIC) in assay [2] (setting [3]) of 4 µg/mL.

In the case of `CC(CCn1ccc(-c2cccnc2)cc1=O)(C(=O)NO)S(C)(=O)=O` (centres unmarked) [Example 219, N-hydroxy-2-methyl-2-(methylsulfonyl)-4-(2′-oxo-3,4′-bipyridin-1′(2′H)-yl)butanamide], the EC-1 (MIC) in assay [1] was > 64 µg/mL. In addition, the PA-7 (MIC) in assay [2] was > 64 µg/mL.

As for `C[C@@](CCn1ccc(-c2ccc(Cl)cc2Cl)cc1=O)(C(=O)NO)S(C)(=O)=O` [Example 386], the EC-1 (MIC) in assay [1] is 2 µg/mL. In assay [2], this compound gave a PA-7 (MIC) of 2 µg/mL.

As for `Cc1c(-c2ccc(Cl)cc2)ccn(CC[C@](C)(C(=O)NO)S(C)(=O)=O)c1=O` [Example 396, (2R)-4-[4-(4-chlorophenyl)-3-methyl-2-oxopyridin-1(2H)-yl]-N-hydroxy-2-methyl-2-(methylsulfonyl)butanamide], the EC-1 (MIC) in assay [1] amounted to 0.25 µg/mL. The compound also had a PA-7 (MIC) in assay [2] of 0.5 µg/mL.

Turning to `CNS(=O)(=O)c1ccc(-c2ccn(CCC(C)(C(=O)NO)S(C)(=O)=O)c(=O)c2)cc1` (centres unmarked) [Example 102, N-hydroxy-2-methyl-4-[4-{4-[(methylamino)sulfonyl]phenyl}-2-oxopyridin-1(2H)-yl]-2-(methylsulfonyl)butanamide], in assay [1] (setting [3]), the EC-1 (MIC) was > 64 µg/mL. In addition, the PA-7 (MIC) in assay [2] (setting [3]) was > 64 µg/mL.

Consider `Cc1ccc(-c2ccn(CCC(C)(C(=O)NO)S(C)(=O)=O)c(=O)c2)cc1F` (centres unmarked) [Example 151, 4-[4-(3-fluoro-4-methylphenyl)-2-oxopyridin-1(2H)-yl]-N-hydroxy-2-methyl-2-(methylsulfonyl)butanamide], for which the EC-1 (MIC) in assay [1] (setting [3]) is 2 µg/mL. In assay [2] (setting [3]), this compound showed a PA-7 (MIC) of 2 µg/mL.

In the case of `CC(=O)c1ccccc1-c1ccn(CCC(C)(C(=O)NO)S(C)(=O)=O)c(=O)c1` (centres unmarked) [Example 140, 4-[4-(2-acetylphenyl)-2-oxopyridin-1(2H)-yl]-N-hydroxy-2-methyl-2-(methylsulfonyl)butanamide], in assay [1] (setting [3]), the EC-1 (MIC) is > 64 µg/mL. In addition, the PA-7 (MIC) in assay [2] (setting [3]) was > 64 µg/mL.

In assay [1], `CC(CCn1ccc(-c2ccc(OCCCn3cncn3)c(Cl)c2)cc1=O)(C(=O)NO)S(C)(=O)=O` (centres unmarked) [Example 290, 4-[4-{3-chloro-4-[3-(1H-1,2,4-triazol-1-yl)propoxy]phenyl}-2-oxopyridin-1(2H)-yl]-N-hydroxy-2-methyl-2-(methylsulfonyl)butanamide] gave an EC-1 (MIC) of 16 µg/mL. Also, the PA-7 (MIC) in assay [2] is 16 µg/mL.

With `CC1CC(=O)Nc2ccc(-c3ccn(CCC(C)(C(=O)NO)S(C)(=O)=O)c(=O)c3)cc21` (mixture of isomers) [Example 484], the EC-1 (MIC) in assay [1] was > 64 µg/mL. For the same compound, the PA-7 (MIC) in assay [2] is > 64 µg/mL.

Consider `C[C@@](CCn1ccc(-c2ccc(Oc3nc4ccccc4s3)cc2)cc1=O)(C(=O)NO)S(C)(=O)=O` [Example 445], for which the EC-1 (MIC) in assay [1] turned out to be 0.25 µg/mL. For the same compound, in assay [2], the PA-7 (MIC) came to 4 µg/mL.

In assay [1], `Cc1cc(-c2ccn(CCC(C)(C(=O)NO)S(C)(=O)=O)c(=O)c2)ccc1OCCCN1CCOCC1` (centres unmarked) [Example 222, N-hydroxy-2-methyl-4-{4-[3-methyl-4-(3-morpholin-4-ylpropoxy)phenyl]-2-oxopyridin-1(2H)-yl}-2-(methylsulfonyl)butanamide] gave an EC-1 (MIC) of 2 µg/mL. Besides, the PA-7 (MIC) in assay [2] amounted to 8 µg/mL.

Compound `CCCCc1ccc(-c2ccn(CCC(C)(C(=O)NO)S(C)(=O)=O)c(=O)c2)cc1` (centres unmarked) [Example 199, 4-[4-(4-butylphenyl)-2-oxopyridin-1(2H)-yl]-N-hydroxy-2-methyl-2-(methylsulfonyl)butanamide] had an EC-1 (MIC) in assay [1] of 0.125 µg/mL. In assay [2], the PA-7 (MIC) was 2 µg/mL.

The compound `CC(CCn1ccc(-c2ccc(OCCCCO)cc2F)cc1=O)(C(=O)NO)S(C)(=O)=O` (centres unmarked) [Example 241] came in with an EC-1 (MIC) in assay [1] of 2 µg/mL. The PA-7 (MIC) in assay [2] was 2 µg/mL.

On to `COc1cccc(-c2ccn(CC[C@](C)(C(=O)NO)S(C)(=O)=O)c(=O)c2)c1C` [Example 468], for which the EC-1 (MIC) in assay [1] came out at 2 µg/mL. In addition, the PA-7 (MIC) in assay [2] worked out at 2 µg/mL.

Take `CC(CCn1ccc(-c2ccccc2OCC(F)(F)F)cc1=O)(C(=O)NO)S(C)(=O)=O` (centres unmarked) [Example 131, N-hydroxy-2-methyl-2-(methylsulfonyl)-4-{2-oxo-4-[2-(2,2,2-trifluoroethoxy)phenyl]pyridin-1(2H)-yl}butanamide]: the EC-1 (MIC) in assay [1] (setting [3]) is > 64 µg/mL. In assay [2] (setting [3]), the PA-7 (MIC) was > 64 µg/mL.

Turning to `Cc1cn(-c2ccc(-c3ccn(CC[C@](C)(C(=O)NO)S(C)(=O)=O)c(=O)c3)cc2)nn1` [Example 377, (2R)-N-hydroxy-2-methyl-2-(methylsulfonyl)-4-{4-[4-(4-methyl-1H-1,2,3-triazol-1-yl)phenyl]-2-oxopyridin-1(2H)-yl}butanamide], the EC-1 (MIC) in assay [1] came to 8 µg/mL. Further, the PA-7 (MIC) in assay [2] amounted to 8 µg/mL.

As to `Cc1ccc2cc(-c3ccn(CCC(C)(C(=O)NO)S(C)(=O)=O)c(=O)c3)ccc2n1` (centres unmarked) [Example 300, N-hydroxy-2-methyl-4-[4-(2-methylquinolin-6-yl)-2-oxopyridin-1(2H)-yl]-2-(methylsulfonyl)butanamide], the EC-1 (MIC) in assay [1] came to 4 µg/mL. For the same compound, the PA-7 (MIC) in assay [2] stood at 8 µg/mL.

In assay [1], `COc1ccc(-c2ccn(CC[C@](C)(C(=O)NO)S(C)(=O)=O)c(=O)c2)cc1F` [Example 317, (2R)-4-[4-(3-fluoro-4-methoxyphenyl)-2-oxopyridin-1(2H)-yl]-N-hydroxy-2-methyl-2-(methylsulfonyl)butanamide] gave an EC-1 (MIC) of 2 µg/mL. The compound also registered a PA-7 (MIC) in assay [2] of 1 µg/mL.
